Reference: article PMC7376644 (Pharmacology Research & Perspectives, 2020)

Key:
[1] = system: CYP1A2; assay: CYP selective diagnostic inhibition studies in HLM, furafylline; type: in vitro ADME, human; conditions: furafylline 10 µmol/L
Experimental: (§1) Reactions were carried out in triplicate in 96 well plates. Each reaction was measured at 2 time points, that is at 0 and 30 minutes. […] Furafylline, KTZ, ticlopidine, and quinidine were used as diagnostic inhibitors for CYP 1A2, 3A4/5, 2C19 and 2D6, respectively. The reactions were initiated by addition of NADPH after a pre‐incubation of 5 minutes at 37°C. All reactions were terminated by the addition of 150 µL ice‐cold ACN. Internal standard (0.2 µmol/L DPZ) was added to ACN prior to termination of the assay. This was followed by centrifugation at 4500 g for 20 minutes. An aliquot (50 µL) supernatant was collected and 5 µL was injected and analyzed by liquid chromatography/tandem mass spectrometry (LC/MS/MS). The percent effect of each inhibitor was the estimated contribution of the inhibited CYP calculated using the relationship below: %contribution=amount remaining with inhibitor‐amount remaining without inhibitor/amount remaining without inhibitor×100.

[2] = system: CYP2D6; assay: CYP selective diagnostic inhibition studies in HLM, quinidine; type: in vitro ADME, human; conditions: quinidine 10 µmol/L
Experimental: as §1

[3] = system: CYP2C19; assay: CYP selective diagnostic inhibition studies in HLM, ticlopidine; type: in vitro ADME, human; conditions: ticlopidine 10 µmol/L
Experimental: as §1

[4] = system: CYP3A4/5; assay: CYP selective diagnostic inhibition studies in HLM, ketoconazole; type: in vitro ADME, human; conditions: ketoconazole 10 µmol/L
Experimental: as §1

[5] = Simcyp prediction of total hepatic clearance; design: species or system human
Experimental: The clearance of the incubation mixture was expressed as μL/min/pmol for rCYP.
(§2) The well‐stirred model was used to estimate the hepatic clearance (CLH) due to metabolism.

[6] = cited from earlier work
[7] = target: T1, CYP1A2 (Homo sapiens, UniProt P05177); assay: in vitro; conditions: recombinant CYP1A2, pH 7.4
T1 sequence (P05177 1-516): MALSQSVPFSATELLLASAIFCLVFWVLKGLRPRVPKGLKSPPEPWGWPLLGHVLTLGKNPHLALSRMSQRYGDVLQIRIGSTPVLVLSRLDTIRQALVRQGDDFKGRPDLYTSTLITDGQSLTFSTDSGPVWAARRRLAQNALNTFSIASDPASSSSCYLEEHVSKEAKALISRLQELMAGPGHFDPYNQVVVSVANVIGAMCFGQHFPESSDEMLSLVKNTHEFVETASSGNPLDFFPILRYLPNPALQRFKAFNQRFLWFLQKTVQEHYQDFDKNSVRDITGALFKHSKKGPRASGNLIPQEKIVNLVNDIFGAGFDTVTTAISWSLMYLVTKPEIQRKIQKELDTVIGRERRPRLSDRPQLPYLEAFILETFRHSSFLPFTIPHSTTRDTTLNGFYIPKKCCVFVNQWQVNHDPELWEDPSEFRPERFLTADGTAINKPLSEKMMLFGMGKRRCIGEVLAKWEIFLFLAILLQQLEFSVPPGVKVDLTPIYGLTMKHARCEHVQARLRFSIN

[8] = target: T2, CYP2D6 (Homo sapiens, UniProt P10635); assay: in vitro; conditions: recombinant CYP2D6, pH 7.4
T2 sequence (P10635 whole entry): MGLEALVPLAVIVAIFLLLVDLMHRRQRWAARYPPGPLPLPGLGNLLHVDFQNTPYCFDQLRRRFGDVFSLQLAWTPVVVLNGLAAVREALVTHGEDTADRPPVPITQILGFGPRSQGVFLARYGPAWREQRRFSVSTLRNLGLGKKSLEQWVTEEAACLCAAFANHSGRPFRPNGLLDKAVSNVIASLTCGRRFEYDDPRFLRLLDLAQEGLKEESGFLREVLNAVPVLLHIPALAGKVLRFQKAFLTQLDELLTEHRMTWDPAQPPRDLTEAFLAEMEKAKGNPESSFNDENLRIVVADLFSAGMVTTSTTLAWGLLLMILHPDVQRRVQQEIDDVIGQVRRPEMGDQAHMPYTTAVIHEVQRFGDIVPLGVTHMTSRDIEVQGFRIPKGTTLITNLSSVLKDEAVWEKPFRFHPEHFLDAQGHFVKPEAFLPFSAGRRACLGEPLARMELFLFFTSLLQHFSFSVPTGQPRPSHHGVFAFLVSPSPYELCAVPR

[9] = target: T1, CYP1A2; assay: Intrinsic clearance, substrate depletion approach; conditions: for Predicted CLH / Predicted CLuH,int: rCYP1A2, substrate depletion
[10] = target: T3, CYP2C19 (Homo sapiens, UniProt P33261); assay: Intrinsic clearance, substrate depletion approach; conditions: rCYP2C19, substrate depletion
T3 sequence (P33261 whole entry): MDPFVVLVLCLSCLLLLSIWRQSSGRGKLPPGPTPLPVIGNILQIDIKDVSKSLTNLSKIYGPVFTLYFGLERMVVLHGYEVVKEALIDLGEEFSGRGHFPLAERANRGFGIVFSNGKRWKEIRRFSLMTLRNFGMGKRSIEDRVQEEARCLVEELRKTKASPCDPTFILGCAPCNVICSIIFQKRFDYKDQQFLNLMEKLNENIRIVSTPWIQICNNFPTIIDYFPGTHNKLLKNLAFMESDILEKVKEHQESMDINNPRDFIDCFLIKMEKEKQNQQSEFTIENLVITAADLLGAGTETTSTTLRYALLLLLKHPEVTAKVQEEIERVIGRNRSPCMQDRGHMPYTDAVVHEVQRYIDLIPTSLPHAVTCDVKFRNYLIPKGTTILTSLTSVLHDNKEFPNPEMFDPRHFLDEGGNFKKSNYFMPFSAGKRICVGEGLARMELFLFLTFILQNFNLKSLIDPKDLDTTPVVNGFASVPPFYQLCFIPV

[11] = target: T2, CYP2D6; assay: Intrinsic clearance, substrate depletion approach; conditions: rCYP2D6, substrate depletion
[12] = target: T3, CYP2C19; assay: Qualitative substrate disappearance assay; type: in vitro ADME; design: purchased CYPEX CYP008; host or cells: Escherichia coli; conditions: 20 pmols rCYP, 1.0 µmol/L substrate, 30 minutes
Experimental: All reactions were performed in triplicate in 96‐well plates. […] The substrate was diluted to 40% ACN so that the percent organic component in the final solution was maintained at 1%. […] The reactions were initiated by addition of NADPH after a pre‐incubation of 5 minutes at 37°C. All reactions were terminated by the addition of 150 µL of ice‐cold ACN at either 0 minute (control) or 30 minutes (reaction). This was followed by centrifugation at 4500 g for 20 minutes. An aliquot (50 µL) supernatant was collected and 5 µL was injected and analyzed by liquid chromatography/tandem mass spectrometry (LC/MS/MS). Metabolism was signified qualitatively by loss of substrate from the media using the relationship: %remaining compound=[…]Peak area atT30min/Peak area atT0min×100.

[13] = target: T1, CYP1A2; assay: Enzyme kinetics of hydroxylated metabolites formation; type: in vitro ADME; design: purchased CYPEX CYP001; host or cells: Escherichia coli; conditions: CYP1A2, formation of cis‐4‐OH‐PZQ
Experimental: The reactions were carried out in duplicate at each time point. Incubation conditions used for the determination of K M and V max were optimized for linearity with respect to time and protein concentrations. […] Metabolites were analyzed by LC‐MS/MS as described below. The K M and V max values of each marker substrate were determined using nonlinear least squares regression analysis in GraFit software (version 3.0, Erithacus Software Limited) and SigmaPlot Enzyme Kinetics Module for Windows 7.0 (SPSS, Inc).
as §2

O=C(C1CCCCC1)N1CC(=O)N2CCc3ccccc3[C@H]2C1 [S‐PZQ, S‐Praziquantel]
Contribution of CYP1A2 [1]: 27% | Contribution of CYP2D6 [2]: 54% | Contribution of CYP2C19 [3]: 117% | Contribution of CYP3A4/5 [4]: 131% | Predicted total CLH (Simcyp) ([5]; metabolite formation assay): 0.60864 L/h/kg | Predicted total CLH (Simcyp) ([5]; substrate depletion assay): 0.3759 L/h/kg | Fraction unbound in plasma (fu) [6]: 0.2 | half-life at 1 µmol/L [7]: 16 min | half-life at 1 µmol/L [8]: 45.3 min | Predicted CLH [9]: 0.1726 L/h/kg | Predicted CLuH,int [9]: 0.7842 L/h/kg | Predicted CLH [10]: 0.336 L/h/kg | Predicted CLuH,int [10]: 1.843 L/h/kg | Predicted CLH [11]: 0.01027 L/h/kg | Predicted CLuH,int [11]: 0.0396 L/h/kg | Depletion of substrate by CYP2C19 [12]: complete depletion | CLuH,int [13]: 0.0498 L/h/kg

O=C(C1CCCCC1)N1CC(=O)N2CCc3ccccc3[C@@H]2C1 [R‐PZQ, R‐Praziquantel]
Contribution of CYP1A2 [1]: 61% | Contribution of CYP2D6 [2]: 51% | Contribution of CYP2C19 [3]: 64% | Contribution of CYP3A4/5 [4]: 33% | Predicted total CLH (Simcyp) ([5]; metabolite formation assay): 0.5866 L/h/kg | Predicted total CLH (Simcyp) ([5]; substrate depletion assay): 0.4154 L/h/kg | Fraction unbound in plasma (fu) [6]: 0.2 | half-life at 1 µmol/L [7]: 7.54 min | half-life at 1 µmol/L [8]: 34.7 min | Predicted CLH [9]: 0.3043 L/h/kg | Predicted CLuH,int [9]: 1.668 L/h/kg | Clearance class, CYP1A2‐mediated ([9]; substrate depletion): high | Clearance by CYP1A2, R‐PZQ compared to S‐PZQ ([9]; substrate depletion, times faster): 2 times | Predicted CLH [10]: 0.2342 L/h/kg | Predicted CLuH,int [10]: 1.184 L/h/kg | Predicted CLH [11]: 0.01279 L/h/kg | Predicted CLuH,int [11]: 0.0516 L/h/kg | Depletion of substrate by CYP2C19 [12]: complete depletion | CLuH,int [13]: 0.453 L/h/kg
